# In patent publication US20240366611A1, “METHODS OF TREATING A DISEASE OR DISORDER” (Ascentage Pharma (Suzhou) Co., Ltd., priority 2021, published 2024):
# How the values were obtained:
# Type in all cases: cell-based
# Conditions in all cases: 7 days of treatment
# HbF in human CD34+ HSC = assay: HbF concentration in human CD34+ HSC by ELISA; parameters: HbF concentration, folds of the vehicle group: dose or concentration left out as unconfirmed
# Experimental: (§1) Human cord blood CD34+ hematopoietic stem cells (HSC) were first expanded in the expansion medium (StemSpan SFEM II+StemSpan CD34 Expansion Supplement) to achieve the desired number of cells, and then differentiated in differentiation medium (StemSpan SFEM II+StemSpan Erythroid Expansion Supplement (100×)) for three days without drug treatment. Various concentrations of Cpd. 73 were added on the fourth day of differentiation and further incubated with the cells for another 7 days. 33 mM Hydroxyurea was used as the control.
# After 7 days of treatment, the cells were collected and lysed. The concentration of HbF in the cell lysate was determined using a Human Fetal Hemoglobin (HBF) ELISA Kit (MyBioSource, MBS2024474). […] The cellular HbF concentration were 1.27-, 1.39-, 1.52-, 1.58- and 1.69-folds of the vehicle group when the cells were treated with 0.01 μM, 0.03 μM, 0.1 μM, 0.3 μM and 1.0 μM Cpd. 73 respectively. […] 73 where the cellular HbF concentration was 1.69-folds of the vehicle group (p<0.01). HbF concentration of cells treated with 33 mM Hydroxyurea was 1.18-folds of the vehicle group. Clinically, small increases of HbF concentration (1-5%) have the potential to provide clinical benefits to all SCD patients.
# [1] = tested on: HBG mRNA in human CD34+ HSC; assay: HBG mRNA level in human CD34+ HSC (qRT-PCR)
# Experimental: as §1
# After 7 days of treatment, the cells were collected. Total RNA was isolated using Trizol LS reagent (Invitrogen-10296028) and 1 μg RNA of each sample was reverse transcribed into cDNA using High Capacity cDNA Reverse Transcription Kit (AB (Applied Biosystems)-4374966), according to the manufacturer's instructions. Quantitative RT-PCR (qRT-PCR) was performed using an Applied Biosystems QuantStudio 7 Flex system with the primer pairs shown as below: hHBG-mRNA-F1 (5′-[…]-3′) and hHBG-mRNA-R1 (5′-TCACTCAGCTGGGCAAAGG-3′). […] The HBG mRNA level were 1.09-, 2.49-, 7.84-, 9.69- and 12.2-folds of the vehicle group when the cells were treated with 0.01 μM, 0.03 μM, 0.1 μM, 0.3 μM and 1.0 μM Cpd. 73 respectively. […] 73 which increased HBG mRNA by 12.2 folds (p<0.0001, vs. vehicle). The HBG mRNA level of cells treated with 33 mM Hydroxyurea, an approved medicine for SCD, was 6.46-folds of the vehicle group.
# [2] = tested on: HbF+ cells in human CD34+ HSC; assay: HbF+ cell % in human CD34+ HSC by FACS
# Experimental: as §1
# After 7 days of treatment, the cells were collected and stained with PE-conjugated Mouse Anti-Human Fetal Hemoglobin (BD, 560041). The percentage of HbF+ cells were quantified by FACS. […] 73 respectively. […] 73 where HbF+ cell % was 2.58-folds of the vehicle group (p<0.0001). The % of HbF+ cells was 1.82-folds of the vehicle group when the cells were treated with 33 mM Hydroxyurea.
smiles,measurement,setting,value
"NC(=O)NO [Hydroxyurea, reference compound]","HbF concentration, folds of the vehicle group",HbF in human CD34+ HSC,1.18 folds
same,"HBG mRNA level, folds of the vehicle group",[1],6.46 folds
same,"% of HbF+ cells, folds of the vehicle group",[2],1.82 folds
